Measurements published in patent US20150057357A1, “BIS (THIOHYDRAZIDE AMIDE) COMPOUNDS FOR TREATING CANCERS” (The Board of Trustees of The Leland Stanford Junior …, priority 2012, published 2015).

What was measured:
[1] = tested on: cell lines deficient in the hOOG1 DNA glycosylase (shOGG1-A and sh-OGG1-B); assay: MTT drug sensitivity assay, base excision repair deficient cells; assay type: cell-based; details: shOGG1-A and sh-OGG1-B versus isogenic controls shCTRL-A and shCTRL-B; FIG. 3
Description: (§1) Human breast cell lines represented the normal breast (MCF12A), basal-like breast cancer (BT549, HCC1806, MDAMB468), BRCA1-mutated breast cancer (HCC1937, SUM149PT, SUM1315MO2), and luminal breast cancer (BT474, MDAMB361, and T47D). Stable cell lines expressing shRNA to hOGG1 (shOGG1) or a non-targeting control (shCTRL) and BRCA1^+/+ and BRCA1^−/− mouse mammary epithelial cells have been previously described (E. Alli, V. B. Sharma, P. Sunderesakumar, J. M. Ford, Defective repair of oxidative dna damage in triple-negative breast cancer confers sensitivity to inhibition of poly(ADP-ribose) polymerase, Cancer Res, 69, 2009, 3589-3596). All cell lines were maintained at 37° C. and 5% CO2.
(§2) Cells were exposed to increasing concentrations of elesclomol and incubated at 37° C. in the presence of 5% CO2 for 96 hours. Cellular sensitivity was then determined by MTT assay and expressed as a percentage of the vehicle control (DMSO). Each data point represents the average of quadruplicate determinations +/−S.D. Images were obtained under 10× objective and are representative.
Two different cell lines deficient in the hOOG1 DNA glycosylase that initiates base excision repair (shOGG1-A and sh-OGG1-B) and their isogenic control cells lines (shCTRL-A and shCTRL-B) were examined for sensitivity to elesclomol.

[2] = tested on: normal breast cells (MCF12A); assay: MTT drug sensitivity assay, normal breast cells; assay type: cell-based, human; details: concentrations of up to 1 μM, 96 hours, FIG. 2
Description: as §1, §2
(§3) Cell lines that represent the normal breast or BRCA1-mutated, basal-like or luminal breast cancers were examined for sensitivity to elesclomol. Shown in FIG. 1 are images of BRCA-1 mutated, basal-like or luminal breast cancer cell cultures after treatment with 0 μM, 0.2 μM or 1 μM elesclomol. […]

[3] = tested on: BRCA1-mutated breast cancer cells (HCC1937, SUM149PT, SUM1315MO2); assay: MTT drug sensitivity assay, BRCA1-mutated breast cancer cells; assay type: cell-based, human
Description: as §1, §2, §3

[4] = tested on: luminal breast cancer cells (BT474, MDAMB361, T47D); assay: MTT drug sensitivity assay, luminal breast cancer cells; assay type: cell-based, human; details: concentrations of up to 1 μM, 96 hours, FIG. 2
Description: as §1, §2, §3

[5] = tested on: basal-like breast cancer cells (BT549, HCC1806, MDAMB468); assay: MTT drug sensitivity assay, basal-like breast cancer cells; assay type: cell-based, human
Description: as §1, §2, §3

CN(NC(=O)CC(=O)NN(C)C(=S)c1ccccc1)C(=S)c1ccccc1 [elesclomol]
sensitivity to elesclomol (cell viability, MTT) [1]: increased sensitivity
effect of treatment on cells (cell death) [2]: remained unaffected
sensitivity to elesclomol (cellular viability dose-response) ([3]; BRCA1-mutated breast cancers compared to normal breast cells or luminal breast cancer cells, FIG. 1, FIG. 2): increased sensitivity
induced cell death ([3]; concentrations of up to 1 μM, 96 hours, BRCA1-mutated breast cancer cells, FIG. 2): up to 95%
effect of treatment on cells (cell death) [4]: remained unaffected
sensitivity to elesclomol (cellular viability dose-response) ([5]; basal-like breast cancers compared to normal breast cells or luminal breast cancer cells, FIG. 1, FIG. 2): increased sensitivity
induced cell death ([5]; concentrations of up to 1 μM, 96 hours, basal-like breast cancer cells, FIG. 2): up to 75%
